Laboratory results: publication PMC11098465, “A comparative analysis of peptide-delivered antisense antibiotics using diverse nucleotide mimics” (RNA, 2024)

Tests used:
[1] = tested on: acpP::gfp reporter transcript; assay: In vitro translation of acpP::gfp reporter (PURExpress) with western blot; format: biochemical, Salmonella; design: key to Inhibition of translation in vitro: +++: Effect strength is represented by additional (+) signs.; ++: Effect strength is represented by additional (+) signs.; Effect strength is represented by additional (+) signs; details: unconjugated ASO; for Inhibition of in vitro translation of acpP::gfp (in words): western blot of AcpP(1–17)::GFP; for Inhibition of translation in vitro: ASO:RNA 0.6:1 to 5:1, 100 nM RNA, 2 h 37°C, summary grade
Description: As a next step, we used a cell-free in vitro translation system ([Popella et al. 2022]) to investigate whether ASO binding to mRNA leads to a block in protein synthesis. As a template, we used the acpP sequence spanning −40 to +51 relative to the AUG start codon fused to a gfp reporter gene (acpP::gfp). This construct was in vitro transcribed, preincubated with different ASOs at different ratios and subsequently translated in vitro. Water was used as a negative control.
For the generation of target RNA::gfp fusion constructs, we used a previously established protocol ([Popella et al. 2022]) and the oligonucleotides JVO-19760/JVO-19761 (Supplemental Table S1) to amplify the genomic region spanning nucleotides –40 to +51 relative to the translational start codon of acpP. The sense oligonucleotide was fused to a T7 promoter sequence for subsequent transcription of the final fusion construct in vitro. The antisense oligonucleotide contained a 30 nt overlapping region with gfp for subsequent fusion PCR with full-length gfp (pXG-10; JVO-19762/JVO-19763) (Supplemental Table S1). The PCR products were purified with NucleoSpin Gel and PCR Clean-up (Macherey-Nagel) according to the manufacturer's instructions, and DNA concentration was quantified with a NanoDrop spectrophotometer (A260 nm).
PCR products were used for T7 RNA polymerase-driven transcription in vitro using the MEGAscript T7 kit (Ambion/Thermo Scientific), according to the manufacturer's instructions and analogous to our previous publication ([Popella et al. 2022]). The concentration of the RNA solution was quantified with Qubit (Fisher Scientific), and the expected product size and RNA integrity were verified on a 6% PAA, 7 M urea gel.
For in vitro translation of target RNA::gfp fusion constructs, the PURExpress In Vitro Protein Synthesis Kit (New England Biolabs, E6800L) was used as described previously ([Popella et al. 2022]). Briefly, the final volume of each in vitro translation reaction was set to 10 µL. One microliter of different concentrations of ASOs ranging from 10 to 0.625 µM was added to 1 µL of in vitro transcribed heat-denatured RNA (1 µM) to adjust the final RNA concentration to 100 nM. The mixtures were preincubated at 37°C for 5 min. Then 4 µL of Solution A and 3 µL of Solution B were added to the preannealed mixtures. After 2 h at 37°C, protein samples were denatured in 1× reducing protein loading buffer (62.6 mM Tris–HCl pH 6.8, 2% SDS, 0.1 mg/mL bromphenol blue, 15.4 mg/mL DTT, 10% glycerol) at 95°C for 5 min.
To visualize in vitro translated proteins, samples were separated on SDS-PAA (12% PAA) gels, with subsequent semi-dry western blot transfer on nitrocellulose membranes. Membranes were blocked with 10% skim milk (in 1× TBS-T) for 1 h and probed with anti-GFP antibody (1:1000; Sigma-Aldrich) in 5% skim milk (in 1× TBS-T) overnight at 4°C. After washing in 1× TBS-T and incubation with an HRP-conjugated secondary antibody (1:5000; Thermo Scientific) in 1× TBS-T, the membrane was incubated with a developing solution kit (Amersham ECL Select Western Blotting Detection Reagent), and protein levels were detected using an ImageQuant LAS 500 (GE Healthcare Life Sciences). Images were processed and band intensities quantified using ImageJ. Protein bands were normalized to the water control.

Salmonella = Salmonella growth assay (MIC); format: cell-based, Salmonella enterica serovar Typhimurium strain SL1344; details: for Antibacterial activity (MIC): ASO conjugated to the KFF carrier peptide, ~10^5 cfu/mL in noncation-adjusted MHB, 37°C, OD600, highest concentration 10 µM; for Antibacterial activity (MIC) / Effect of KFF-ASO conjugates on Salmonella growth (in words): 24 h; for Effect of KFF-ASO conjugates on Salmonella growth (in words): up to 10 µM; for Effect of KFF-ASO conjugates on Salmonella growth (in words) / Bactericidal concentration: KFF conjugates; for Bactericidal concentration: spotting of ASO-treated bacterial samples at 24 h
Description: Next, we sought to compare the antibacterial efficacy of the ASOs upon delivery into bacterial cells with a KFF carrier peptide. Therefore, we measured the growth kinetics of Salmonella in the presence of the ASOs for 24 h (Fig. 4). Because we have previously shown that the KFF peptide has a minimum inhibitory concentration (MIC) of >10 µM ([Popella et al. 2021]), we choose 10 µM as a cutoff point in our experiments. […] Spotting of the ASO-treated bacterial samples at 24 h confirmed that PMO and PNA were bactericidal at 10 and 1.25 µM, respectively (Supplemental Fig. S6B).
An overnight bacterial cell culture was diluted 1:100 in fresh MHB and grown to OD600 0.5. The culture was then diluted to ∼10^5 cfu/mL in noncation-adjusted MHB. Subsequently, 190 µL bacterial solution was dispensed into a 96-well plate (Thermo Fisher Scientific) along with 10 µL of a 200 µM solution of the ASOs. Growth was monitored by measuring the OD at 600 nm every 20 min in a Synergy H1 plate reader (Biotek) with continuous double-orbital shaking (237 cpm) at 37°C for 24 h.

Substance	Inhibition of in vitro translation of acpP::gfp (in words) [1]	Antibacterial activity (MIC) (Salmonella) [µM]	Effect of KFF-ASO conjugates on Salmonella growth (in words) (Salmonella)	Inhibition of translation in vitro [1]	Bactericidal concentration (Salmonella) [µM]
DNA-PTO: phosphorothioate-modified DNA 10mer ASO, sequence CTCATACTCT, targeting acpP −5 to +5 (DNA, all phosphorothioate, methylation of C not given here)	did not inhibit protein synthesis	>10	slight growth retardation was observed at 5 and 10 µM		
LNA: 2′–4′-locked RNA 10mer ASO, sequence CTCATACTCT, targeting acpP −5 to +5 (all LNA, backbone and methylation of C not given here)	substantially blocking in vitro translation of acpP::gfp at 1.25× molar excess	>10	slight growth retardation was observed at 5 and 10 µM	+++	
PMO: phosphorodiamidate morpholino 10mer ASO, sequence CTCATACTCT, targeting acpP −5 to +5 (all phosphorodiamidate morpholino (PMO))	less pronounced	10		++	10
PNA: peptide nucleic acid 10mer ASO, sequence CTCATACTCT, targeting acpP −5 to +5 (all peptide nucleic acid (PNA))	substantially blocking in vitro translation of acpP::gfp at 1.25× molar excess	1.25		+++	1.25
RNA-F: 2′-fluorinated RNA 10mer ASO, sequence CTCATACTCT, targeting acpP −5 to +5 (all 2'-fluoro, backbone and T or U not given here)	less pronounced	>10	slight growth retardation was observed at 5 and 10 µM	++	
RNA-MOE: 2′-methoxyethylated RNA 10mer ASO, sequence CTCATACTCT, targeting acpP −5 to +5 (all 2'-MOE, backbone and methylation of C not given here)	substantially blocking in vitro translation of acpP::gfp at 1.25× molar excess	>10	slight growth retardation was observed at 5 and 10 µM	+++	
RNA-OMe: 2′-methylated RNA 10mer ASO, sequence CTCATACTCT, targeting acpP −5 to +5 (all 2'-O-methyl, backbone and T or U not given here)	less pronounced	>10	lacked any antibacterial activity		
